# Columns and labels:
# [1] = molecular target: T1, human NK1 receptor (Homo sapiens, UniProt P25103); assay: Human NK1 receptor binding assay (3H-Sar9-SP, hNK1-CHO cells); conditions: room temperature 60 minutes
# T1 construct: expressed in transfected cells; host or cells: CHO cells (hNK1-CHO)
# Method: A supernatant liquid was removed from an hNK1-CHO cell incubation flask in a confluent state, trypsin (0.25%)-EDTA (1 mmol/L) (Gibco) was added thereto and the cells were exfoliated and recovered. After they were washed with a buffer A (pH 7.5; 50 mmol/L Tris hydrochloride 50 mmol/L, 150 mmol/L NaCl and 0.02% BSA) for one time (at […] for 5 minutes), cell numbers were adjusted and re-floated on a buffer for assay {a buffer A to which 40 μg/mL bacitracin (Sigma), 4 μg/mL leupeptin (Sigma), 4 μg/mL chymostatin (Sigma) and 4 μg/mL phosphoramidon (Sigma) were added}. The hNK1-CHO cells (100 μL) were placed in a tube (TPX-12, Maruemu) in which 300 μL of the buffer for assay was charged so as to make cells 10^5 per tube, 50 μL of a hot solution (^3H-Sar^9-SP, final concentration: […]) and 50 μL of a substance to be tested were added (a system of 500 μL), stirred and made to react at room temperature for 60 minutes. After completion of the reaction, it was filtered through a GF/B filter (25 mm diameter, Whatman) which was previously dipped in 0.1% polyethyleneimine p-70 (Wako Pure Chemical), washed with the buffer A (4 mL each for three times), placed in a vial and dried at 60° C. for one night. After drying, 10 mL of a scintillator (AL-1, toluene base, Dojindo) was added thereto and dpm was measured by a liquid scintillation counter (for 5 minutes/vial).
# With regard to a nonspecific binding, it was defined as the dpm when 10 μmol/L of the substance P was added instead of the substance to be tested. The experiment was conducted in duplicate and at least three experiments were repeated. IC50 value was calculated using a probit method (statistic library II, Yukms).
# [2] = Pharmacokinetic test in blood by a single oral administration to guinea pigs; format: in vivo; conditions: 100 mg/kg orally, plasma
# Method: Male guinea pigs of a Hartley strain (SPF, Nippon SLC) were purchased and subjected to a preliminary breeding for one week and the normally grown ones were fasted for one night and used for the test. The compound of the present invention was suspended in 1 g/dL methyl cellulose solution and 100 mg/kg was orally administered in an administering dose of 5 mL/kg. After 0.5, 1, 2, 4, 8 and 24 hour(s) from the oral administration, about 0.4 mL of blood was collected from the vein of median of foreleg using a heparinized capillary. Plasma prepared by its centrifugation (at 12,000 rpm for 10 minutes) was stored at −80° C. until the measurement. Measurement of the concentration in blood was conducted by a UV-detecting HPLC method.
# [3] = molecular target: T2, NK1 receptor (Cavia porcellus, UniProt P30547); assay: Test for transfer into cerebral center of guinea pigs ([3H]substance P binding in striatum homogenate after oral dosing); format: in vivo; conditions: 4 hours after oral administration of 20 mg/mL at 5 mL/kg
# T2 construct: the brain was excised and the striatum was collected; from tissue; host or cells: striatum of male Hartley guinea pigs (Nippon SLC), homogenate after oral dosing
# T2 sequence (P30547 whole entry): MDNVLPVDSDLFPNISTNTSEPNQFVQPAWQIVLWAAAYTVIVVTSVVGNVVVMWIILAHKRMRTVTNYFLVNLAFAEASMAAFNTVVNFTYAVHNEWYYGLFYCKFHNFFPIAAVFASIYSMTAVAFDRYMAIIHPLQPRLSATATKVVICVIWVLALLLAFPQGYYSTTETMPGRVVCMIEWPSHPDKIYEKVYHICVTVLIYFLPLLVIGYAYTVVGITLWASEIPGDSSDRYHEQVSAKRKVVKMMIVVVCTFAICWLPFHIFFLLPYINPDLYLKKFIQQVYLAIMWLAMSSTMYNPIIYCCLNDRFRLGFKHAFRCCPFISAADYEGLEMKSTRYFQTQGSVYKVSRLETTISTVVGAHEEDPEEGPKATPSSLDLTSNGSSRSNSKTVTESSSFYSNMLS
# Method: Male guinea pigs of a Hartley strain (four weeks age, SPF, Nippon SLC) were purchased, subjected to a preliminary breeding for not shorter than one week, fasted for one night and used for the test where one group comprised eight guinea pigs. As a substance to be tested, the Compound 21 which is the compound of the present invention was suspended in 1% methyl cellulose […] to make 20 mg/mL. As a substance for comparison, LY-303870 [(R)-1-[N-(2-methoxybenzyl)acetylamino]-3-(1H-indol-3-yl)-2-[N-(2-(4-(piperidin-1-yl)piperidin-1-yl)acetyl)amino]propane] was dissolved in a 1% aqueous solution of MC to make 20 mg/mL.
# A test was conducted in accordance with a method of Iyengar, et al. Thus, a 1% aqueous solution of MC and the above-prepared solution of the test substance were orally administered in an administering dose of 5 mL/kg, then the animals were killed by carbon dioxide gas after 4 hours from administration of the test substance solution and after 1 hour from administration of the 1% aqueous MC solution and the comparative substance solution, the brain was excised and the striatum was collected. After measuring its wet weight, 50 mmol/L Tris-HCl (pH 7.5) was added thereto so as to make it 40 mg/mL followed by homogenizing for 10 seconds. […]
# T1 sequence (P25103 whole entry): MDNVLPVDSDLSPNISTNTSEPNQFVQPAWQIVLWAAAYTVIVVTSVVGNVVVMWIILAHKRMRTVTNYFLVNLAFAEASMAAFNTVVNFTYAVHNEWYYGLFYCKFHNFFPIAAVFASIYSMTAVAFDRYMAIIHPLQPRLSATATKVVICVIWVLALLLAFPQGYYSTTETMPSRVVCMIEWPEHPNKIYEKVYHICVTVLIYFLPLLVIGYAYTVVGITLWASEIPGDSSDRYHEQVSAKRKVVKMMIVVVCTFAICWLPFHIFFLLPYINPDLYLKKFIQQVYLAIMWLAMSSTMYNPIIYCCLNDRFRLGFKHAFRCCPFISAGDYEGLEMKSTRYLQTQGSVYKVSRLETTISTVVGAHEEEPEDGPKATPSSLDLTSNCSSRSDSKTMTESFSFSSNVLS
smiles,measurement,setting,value
"O=C(NCC(COCc1cc(C(F)(F)F)cc(C(F)(F)F)c1)c1ccc(F)cc1)c1cc[n+]([O-])cc1 (stereo not drawn) [Compound 21, N-[3-(3,5-Bis(trifluoromethyl)benzyloxy)-2-(4-fluorophenyl)propyl]-1-oxyisonicotinamide]",IC50,[1],2.9 nM
same,Cmax,[2],26900 ng/mL
same,Tmax,[2],4 h
same,t½,[2],3.2 h
same,specific binding of [3H]substance P,"[3]; guinea pig striatum homogenate, control group 1083.4±95.5 dpm",228.2±15.5 dpm
same,occupying rate of the NK1 receptor in the brain,"[3]; guinea pigs, mean value ±standard deviation",79.9±1.4%

# From patent publication US7939552B2, “Benzyloxypropylamine derivative” (Nippon Zoki Pharmaceutical Co., Ltd., priority 2005, dated 2011)
